Source: ChEMBL document CHEMBL1157030 (Eur J Med Chem, 2010)

Target: Acetylcholinesterase (Electrophorus electricus, UniProt O42275)
Sequence (O42275 whole entry): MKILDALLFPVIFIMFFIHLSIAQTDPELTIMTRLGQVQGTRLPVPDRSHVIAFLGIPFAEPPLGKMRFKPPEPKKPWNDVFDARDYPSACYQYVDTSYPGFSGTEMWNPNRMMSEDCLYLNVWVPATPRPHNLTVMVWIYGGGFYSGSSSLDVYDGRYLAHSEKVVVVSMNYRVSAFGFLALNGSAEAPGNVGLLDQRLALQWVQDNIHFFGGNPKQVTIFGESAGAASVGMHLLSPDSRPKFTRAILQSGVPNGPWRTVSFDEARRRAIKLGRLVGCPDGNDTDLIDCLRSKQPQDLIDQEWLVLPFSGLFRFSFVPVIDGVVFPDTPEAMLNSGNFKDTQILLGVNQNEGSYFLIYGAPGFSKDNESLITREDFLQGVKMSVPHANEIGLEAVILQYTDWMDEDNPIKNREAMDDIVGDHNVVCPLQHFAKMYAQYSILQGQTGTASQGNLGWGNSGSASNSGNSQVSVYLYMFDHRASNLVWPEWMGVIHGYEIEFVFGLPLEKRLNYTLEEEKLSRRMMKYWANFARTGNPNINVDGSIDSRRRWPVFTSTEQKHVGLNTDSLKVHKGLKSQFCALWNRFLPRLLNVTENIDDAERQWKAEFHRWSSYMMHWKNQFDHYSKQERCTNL
Description: inhibition of electric eel AChE by Ellman's method

Q: For O=C(CN1CCCC1)Nc1ccc2nc3c4[nH]c5ccccc5c4ccn3c(=O)c2c1, which IC50 is on record?
A: Its IC50 is 23.6 nM.

Q: How did the IC50 turn out when O=C(CN1CCCCC1)Nc1ccc2nc3c4[nH]c5ccccc5c4ccn3c(=O)c2c1 was run?
A: Its IC50 is 10.1 nM.

Q: O=C(CCN1CCCCC1)Nc1ccc2nc3n(c(=O)c2c1)CCc1c-3[nH]c2ccccc12 was tested. Which IC50 did it give?
A: The IC50 was 21.4 nM.

Q: CCN(CC)CC(=O)Nc1ccc2nc3c4[nH]c5ccccc5c4ccn3c(=O)c2c1 was tested. Which IC50 did it give?
A: The IC50 was 57.1 nM.

Q: For O=C(CCN1CCCC1)Nc1ccc2nc3n(c(=O)c2c1)CCc1c-3[nH]c2ccccc12, which IC50 is on record?
A: The IC50 was 29.2 nM.

Q: CCN(CC)CCC(=O)Nc1ccc2nc3n(c(=O)c2c1)CCc1c-3[nH]c2ccccc12 was tested. Which IC50 did it give?
A: The IC50 was 80.2 nM.

Q: Which IC50 does the source give for O=C(CN1CCCCC1)Nc1ccc2nc3n(c(=O)c2c1)CCc1c-3[nH]c2ccccc12 here?
A: Its IC50 is 111 nM.

Q: For O=C(CN1CCCC1)Nc1ccc2nc3n(c(=O)c2c1)CCc1c-3[nH]c2ccccc12, which IC50 is on record?
A: Its IC50 is 131 nM.

Q: How did the IC50 turn out when O=C(CN1CCCCC1)Nc1ccc2ncn(CCc3c[nH]c4ccccc34)c(=O)c2c1 was run?
A: Its IC50 is 1520 nM.

Q: Which IC50 does the source give for CCN(CC)CC(=O)Nc1ccc2nc3n(c(=O)c2c1)CCc1c-3[nH]c2ccccc12 here?
A: Its IC50 is 372 nM.

Q: O=C(CN1CCCC1)Nc1ccc2ncn(CCc3c[nH]c4ccccc34)c(=O)c2c1 was tested. Which IC50 did it give?
A: The IC50 was 4040 nM.

Q: CCN(CC)CC(=O)Nc1ccc2ncn(CCc3c[nH]c4ccccc34)c(=O)c2c1 was tested. Which IC50 did it give?
A: Its IC50 is 7680 nM.

Target: Cholinesterase (Equus caballus, UniProt P81908)
Sequence (P81908 whole entry): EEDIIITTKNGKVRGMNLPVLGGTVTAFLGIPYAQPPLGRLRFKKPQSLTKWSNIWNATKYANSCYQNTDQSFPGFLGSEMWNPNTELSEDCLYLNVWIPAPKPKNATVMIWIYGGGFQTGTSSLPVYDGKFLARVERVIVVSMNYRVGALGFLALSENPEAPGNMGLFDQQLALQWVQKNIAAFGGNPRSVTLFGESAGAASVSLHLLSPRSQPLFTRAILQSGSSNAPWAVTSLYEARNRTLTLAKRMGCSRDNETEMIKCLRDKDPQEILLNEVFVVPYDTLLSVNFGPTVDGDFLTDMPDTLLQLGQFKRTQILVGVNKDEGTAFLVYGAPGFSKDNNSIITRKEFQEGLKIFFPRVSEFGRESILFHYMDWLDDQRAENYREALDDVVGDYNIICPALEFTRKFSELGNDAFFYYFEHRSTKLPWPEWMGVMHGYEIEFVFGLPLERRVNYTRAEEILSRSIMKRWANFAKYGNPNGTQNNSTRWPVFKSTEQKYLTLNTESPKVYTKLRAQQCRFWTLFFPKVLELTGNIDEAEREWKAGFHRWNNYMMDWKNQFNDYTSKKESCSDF
Description: inhibition of equine serum BuChE by Ellman's method

Q: Which IC50 does the source give for O=C(CN1CCCC1)Nc1ccc2nc3c4[nH]c5ccccc5c4ccn3c(=O)c2c1 here?
A: Its IC50 is 428 nM.

Q: How did the IC50 turn out when O=C(CN1CCCCC1)Nc1ccc2nc3c4[nH]c5ccccc5c4ccn3c(=O)c2c1 was run?
A: Its IC50 is 5430 nM.

Q: O=C(CCN1CCCCC1)Nc1ccc2nc3n(c(=O)c2c1)CCc1c-3[nH]c2ccccc12 was tested. Which IC50 did it give?
A: The IC50 was 2110 nM.

Q: With CCN(CC)CC(=O)Nc1ccc2nc3c4[nH]c5ccccc5c4ccn3c(=O)c2c1 as the compound, how does the IC50 read?
A: Its IC50 is 11400 nM.

Q: With O=C(CCN1CCCC1)Nc1ccc2nc3n(c(=O)c2c1)CCc1c-3[nH]c2ccccc12 as the compound, how does the IC50 read?
A: The IC50 was 845 nM.

Q: How did the IC50 turn out when CCN(CC)CCC(=O)Nc1ccc2nc3n(c(=O)c2c1)CCc1c-3[nH]c2ccccc12 was run?
A: Its IC50 is 2850 nM.

Q: Which IC50 does the source give for O=C(CN1CCCCC1)Nc1ccc2nc3n(c(=O)c2c1)CCc1c-3[nH]c2ccccc12 here?
A: Its IC50 is 33000 nM.

Q: O=C(CN1CCCC1)Nc1ccc2nc3n(c(=O)c2c1)CCc1c-3[nH]c2ccccc12 was tested. Which IC50 did it give?
A: The IC50 was 696 nM.

Q: For O=C(CN1CCCCC1)Nc1ccc2ncn(CCc3c[nH]c4ccccc34)c(=O)c2c1, which IC50 is on record?
A: The IC50 was 13000 nM.

Q: How did the IC50 turn out when CCN(CC)CC(=O)Nc1ccc2nc3n(c(=O)c2c1)CCc1c-3[nH]c2ccccc12 was run?
A: Its IC50 is 17600 nM.

Q: O=C(CN1CCCC1)Nc1ccc2ncn(CCc3c[nH]c4ccccc34)c(=O)c2c1 was tested. Which IC50 did it give?
A: The IC50 was 25900 nM.

Q: With CCN(CC)CC(=O)Nc1ccc2ncn(CCc3c[nH]c4ccccc34)c(=O)c2c1 as the compound, how does the IC50 read?
A: The IC50 was 41600 nM.
